# Results as given in article PMC11013252, “Exploration of the Antibacterial and Anti-Inflammatory Activity of a Novel Antimicrobial Peptide Brevinin-1BW” (Molecules, 2024).
# Positions of bridges follow the written chain, without caps; N, C: chain ends. Residues, ends and D or L forms follow the SMILES beside them.
# Key:
# [1] = system: S. epidermidis (CI 1607BL1D39); assay: microbe, parasite or virus in culture; format: cell-based, Staphylococcus epidermidis; settings: CI 1607BL1D39, 18 h
# Description: (§1) The minimum inhibitory concentration (MIC) of the Brevinin-1BW was measured in 96-well microtiter plates according to the Clinical and Laboratory Standards Institute (CLSI). The activated strains were treated with Mueller Hinton Agar (MHA) solid medium. Single colonies were picked and expanded to the logarithmic growth phase, and the solution was diluted to 2 × 10^6 CFU/mL using the McFarland turbidity standard. The MIC was determined with the two-fold dilution method. Briefly, 50 μL of Mueller Hinton (MH) medium was added to a 96-well plate in advance. Then, 50 μL of AMP solution was added to the first well, and 50 μL was pipetted into the next well after mixing using a row gun, while 50 μL was discarded from the last well. Final concentrations of Brevinin-1BW were 100, 50, 25, 12.5, 6.25, and 3.125 μg/mL. A 50 μL volume of the diluted bacterial solution was added, and the final concentration of the bacterial solution was 1 × 10^6 CFU/mL. This was then placed into a 37 °C incubator for 18 h until the next day to observe the degree of turbidity of the 96-well plate and measure the absorbance of the wells at 600 nm with a multifunctional microplate reader (SpectraMax iD5, Molecular Devices, Sunnyvale, CA, USA). The absence of turbidity and the measured concentration of absorbance being less than the opposing group was taken as the MIC. The positive control used ampicillin at the same final concentration as Brevinin-1BW, the negative control used 50 μL of MH medium mixed with 50 μL of 2 × 10^6 CFU/mL bacterial solution, and the blank contained only 100 μL of MH medium. Three replicate wells were set up for each experiment, and each experiment was repeated three times. The MIC and all concentrations above the MIC of bacterial solution coated on MHA solid medium were placed into 37 °C incubator incubation for 18 h. The lowest concentration resulting in no colony growth was taken as the minimum bactericidal concentration (MBC).
# [2] = system: S. haemolyticus (CI 1607BLD590); assay: microbe, parasite or virus in culture; format: cell-based, Staphylococcus haemolyticus; settings: CI 1607BLD590, 18 h
# Description: as §1
# [3] = system: P. aeruginosa (ATCC27853); assay: microbe, parasite or virus in culture; format: cell-based, Pseudomonas aeruginosa; settings: ATCC27853, 18 h
# Description: as §1
# [4] = system: E. faecalis (ATCC29212); assay: microbe, parasite or virus in culture; format: cell-based, Enterococcus faecalis; settings: ATCC29212, 18 h
# Description: as §1
# [5] = system: HFF; format: cell-based, human; settings: 24 h
# [6] = system: iNOS mRNA; assay: mRNA expression in LPS-treated RAW264.7 cells, real-time PCR; format: cell-based, mouse
# Description: (§2) RAW 264.7 mouse macrophages were cultured in DMEM medium (Gibco, New York, NY, USA). containing 10% FBS (TransGen Biotech, Beijing, China) and 1% penicillin-streptomycin (Biosharp, Guangzhou, China) and were seeded into 6-well plates at a cell density of 10^5 cells/mL. After cell adhesion, 1 μg/mL LPS (Solarbio, Beijing, China) and different concentrations of Brevinin-1BW (0, 1, 2, 3, and 4 μg/mL) were incubated for 24 h. Culture supernatants were collected, and the contents of TNFα, IL-6, and IL-1β were determined with enzyme-linked immunosorbent assay (BOSTER, Wuhan, China). All cells were washed twice with precooled PBS, total cellular RNA was extracted using the RNAsimple Total RNA Extraction kit (TIANGEN, Beijing, China), and total RNA concentration and purity were determined using a Thermo Fisher NanoDropOne nucleic acid protein spectrophotometer. HiScript II 1st Strand cDNA Synthesis Kit (Vazyme, Nanjing, China) synthesized cDNA, and we performed real-time PCR using Hieff® qPCR SYBR Green Master Mix (No Rox) (YEASEN, Shanghai, China). The primer sequences for Beta-actin (β-Actin), interleukins (IL-6, IL-1β), tumor necrosis factor (TNF-α), and nitric oxide synthase (iNOS) are shown in Table 6. Cells incubated without peptide and/or LPS were used as negative control. All experiments were repeated three times.
# [7] = system: IL-1β mRNA; assay: as above; format: cell-based, mouse
# Description: as §2
# [8] = system: IL-6 mRNA; assay: as above; format: cell-based, mouse
# Description: as §2
# [9] = system: TNF-α mRNA; assay: as above; format: cell-based, mouse
# Description: as §2
# [10] = system: HCT116; format: cell-based, human; settings: 24 h
# Description: (§3) Medium was prepared to contain 10% FBS (TransGen Biotech, China) and 1% penicillin-streptomycin (Biosharp, Guangzhou, China). A549, U-2OS, HePG2, HaCaT, HUVEC, and 293T cells were cultured in DMEM medium (Gibco, New York, NY, USA). A375, HCT116, Hela, and RAW264.7 cells were cultured in RPMI 1640 medium (Gibco, New York, NY, USA). The cytotoxicity of Brevinin-1BW was determined using the Cell Counting Kit-8 as follows: detached the cells from cell culture flasks with 0.25% trypsin, counted with a hemocytometer plate and then prepared into a cell suspension containing 5 × 10^3 cells/mL. Then, 90 μL of the cell suspension was inoculated into a 96-well plate and incubated at 37 °C in a 5% CO2-humidified atmosphere for 24 h. A 10 μL volume of the peptide was subsequently added to each well and co-incubated with the cells for 24 h. Then, 10 μL of CCK8 (Abbkine, Wuhan, China) was added to each well and incubated for a further 2 h. The absorbance of each well at 450 nm was measured using a multifunctional enzyme marker. […] Three replicate wells were set up for each experiment, and each experiment was repeated three times. The formula for calculating the cell viability is shown below.
# [11] = system: HaCaT; format: cell-based, human; settings: 24 h
# Description: as §3
# [12] = system: HUVEC; format: cell-based, human; settings: 24 h
# Description: as §3
# [13] = system: HePG2; format: cell-based, human; settings: 24 h
# Description: as §3
# [14] = system: U-2OS; format: cell-based, human; settings: 24 h
# Description: as §3
# [15] = system: A549; format: cell-based, human; settings: 24 h
# Description: as §3
# [16] = system: Hela; format: cell-based, human; settings: 24 h
# Description: as §3
# [17] = system: 293T; format: cell-based, human; settings: 24 h
# Description: as §3
# [18] = system: A375; format: cell-based, human; settings: 24 h
# Description: as §3
compound,measurement,setting,value
CC[C@H](C)[C@@H]1NC(=O)[C@H](CCCCN)NC(=O)[C@@H](NC(=O)[C@H](Cc2ccccc2)NC(=O)[C@@H](NC(=O)[C@@H](NC(=O)[C@@H]2CCCN2C(=O)[C@H](CC(C)C)NC(=O)[C@H](Cc2ccccc2)NC(=O)[C@H](CO)NC(=O)[C@H](C)NC(=O)[C@H](C)NC(=O)[C@H](CC(C)C)NC(=O)CNC(=O)[C@H](C)NC(=O)[C@H](CC(C)C)NC(=O)[C@H](CC(C)C)NC(=O)[C@@H]2CCCN2C(=O)[C@H](CC(C)C)NC(=O)[C@@H](N)Cc2ccccc2)[C@@H](C)O)[C@@H](C)CC)CSSC[C@@H](C(=O)O)NC(=O)[C@H](CCCCN)NC(=O)[C@H](CCCNC(=N)N)NC(=O)[C@H](CO)NC1=O [Brevinin-1BW] (H-FLPLLAGLAASFLPTIFCKISRKC-OH; disulfide 18-24),MBC,[1],25 µg/mL
same,MIC,[1],12.5 µg/mL
same,MBC,[2],25 µg/mL
same,MIC,[2],12.5 µg/mL
same,MBC,[3],>100 µg/mL
same,MIC,[3],100 µg/mL
same,MBC,[4],12.5 µg/mL
same,MIC,[4],3.125 µg/mL
same,CC50,[5],33.99 ± 0.48 µg/mL
same,decrease of iNOS mRNA expression level,[6],81.37%
same,decrease of IL-1β mRNA expression level,[7],95.5%
same,decrease of IL-6 mRNA expression level,[8],93.72%
same,decrease of TNF-α mRNA expression level,[9],86.94%
same,CC50,[10],35.44 ± 0.47 µg/mL
same,CC50,[11],36.84 ± 1.44 µg/mL
same,CC50,[12],43.62 ± 0.77 µg/mL
same,CC50,[13],25.42 ± 0.49 µg/mL
same,CC50,[14],39.20 ± 0.40 µg/mL
same,CC50,[15],27.64 ± 0.41 µg/mL
same,CC50,[16],37.62 ± 0.91 µg/mL
same,CC50,[17],28.34 ± 1.08 µg/mL
same,CC50,[18],23.79 ± 0.80 µg/mL
